According to US20230310467A1 (priority 2022, published 2023):

Assay: Stability by UV spectroscopy after storage under normal conditions and stress tests
Type: physicochemical
Details: stress / rapid test conditions

## CCC(CC)COC(=O)[C@H](C)N[P@](=O)(OC[C@H]1O[C@@](C#N)(c2ccc3c(N)ncnn23)[C@H](O)[C@@H]1O)Oc1ccccc1 [RDV, remdesivir]
  stability of the solution according to UV spectroscopic data: limitedly stable
